Laboratory results as given in PubChem BioAssay AID402 (SGCOxCompounds, 2006).

Target: Tyrosine-protein phosphatase non-receptor type 14 (Homo sapiens) (UniProt Q15678)
Assay: inhibition of PTPN14 enzymatic activity – biochemical, human, DiFMUP fluorescence (AID 402)
Details: recombinant PTPN14, DiFMUP fluorescence phosphatase assay; at 50 µM; active compounds read high

Tyrosine-protein phosphatase non-receptor type 14 (Homo sapiens), sequence (Q15678 whole entry, looked up): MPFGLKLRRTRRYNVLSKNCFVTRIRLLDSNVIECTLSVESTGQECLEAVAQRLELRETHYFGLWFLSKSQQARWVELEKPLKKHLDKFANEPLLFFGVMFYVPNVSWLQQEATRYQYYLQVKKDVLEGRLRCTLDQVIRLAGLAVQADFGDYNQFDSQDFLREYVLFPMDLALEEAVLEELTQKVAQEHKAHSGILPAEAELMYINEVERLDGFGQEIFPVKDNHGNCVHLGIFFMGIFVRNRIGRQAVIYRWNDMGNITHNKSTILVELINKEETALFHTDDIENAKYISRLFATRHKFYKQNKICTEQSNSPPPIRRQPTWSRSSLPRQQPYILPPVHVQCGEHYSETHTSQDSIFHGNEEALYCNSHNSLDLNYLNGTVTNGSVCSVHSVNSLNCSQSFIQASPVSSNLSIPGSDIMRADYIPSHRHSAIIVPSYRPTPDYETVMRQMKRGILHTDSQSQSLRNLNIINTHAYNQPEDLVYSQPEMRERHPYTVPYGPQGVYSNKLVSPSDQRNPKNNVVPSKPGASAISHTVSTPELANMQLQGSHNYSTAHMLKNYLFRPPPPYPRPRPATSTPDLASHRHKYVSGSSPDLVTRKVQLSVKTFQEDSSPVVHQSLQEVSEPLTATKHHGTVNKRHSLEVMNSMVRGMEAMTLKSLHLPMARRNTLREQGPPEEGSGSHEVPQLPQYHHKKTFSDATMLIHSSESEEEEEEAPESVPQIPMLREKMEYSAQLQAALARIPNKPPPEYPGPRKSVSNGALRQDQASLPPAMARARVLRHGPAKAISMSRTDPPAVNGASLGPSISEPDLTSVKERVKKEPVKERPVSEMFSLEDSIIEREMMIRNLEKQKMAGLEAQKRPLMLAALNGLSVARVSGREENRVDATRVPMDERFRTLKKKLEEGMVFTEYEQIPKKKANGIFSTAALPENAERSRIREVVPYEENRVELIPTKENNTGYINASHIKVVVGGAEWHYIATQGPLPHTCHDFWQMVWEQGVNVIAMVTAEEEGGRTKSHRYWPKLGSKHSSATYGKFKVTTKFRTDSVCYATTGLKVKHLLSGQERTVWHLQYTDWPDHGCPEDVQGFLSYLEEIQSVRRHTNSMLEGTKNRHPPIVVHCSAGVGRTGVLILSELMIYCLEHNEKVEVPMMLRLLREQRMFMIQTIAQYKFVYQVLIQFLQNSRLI

Structure (SMILES) | inhibition
O=C([O-])c1ccccn1.OO.OO.[K+].[K+].[O]=[V] | 73%
O=P(O)(O)Oc1cccc2ccccc12 | 26%
[NH-]CO.[NH-]CO.[NH-]CO.[NH-]CO.[O]=[V][O][V]=[O] | 28.5%
CN(N=O)c1ccc(O)c(O)c1 | 68%
CCn1nc(-c2ccc(Cl)cc2)nc2c(=O)n(C)c(=O)nc1-2 | 30.5%
O=P(O)(O)OC(CO)CO | 27%
OO.OO.[K+].[O]=[V].c1ccc(-c2ccccn2)nc1 | 72%
Cn1nc(-c2ccccc2)nc2c(=O)n(C)c(=O)nc1-2 | 39.5%
O=C(O)c1ccc(O)cn1.OO.[O]=[V] | 62.5%
CCn1nc(-c2ccccc2)nc2c(=O)n(C)c(=O)nc1-2 | 25.5%
CCn1nc(/C=C/c2ccccc2)nc2c(=O)n(C)c(=O)nc1-2 | 24%
c1ccc([C@H]2CN3CCSC3=N2)cc1 | 27%
OO.OO.[K+].[O]=[V].c1cnc2c(c1)ccc1cccnc12 | 49%
O=C(O)c1ccc([O-])cn1.OO.OO.[K+].[K+].[O]=[V] | 70%
CCn1nc(/C=C/c2ccccc2)[n+](=O)c2c(=O)n(C)c(=O)[nH]c21 | 33%
Cn1nc(/C=C/c2ccccc2)nc2c(=O)n(C)c(=O)nc1-2 | 37%
Cn1c(=O)[nH]c2c(c1=O)[n+](=O)c(/C=C/c1ccccc1)nn2C | 28%
